Measurements from patent US11365188B2, “JAK inhibitors” (priority 2018, dated 2022).

What was measured:
Assay type in all cases: biochemical
[1] = target: T1, JAK3 (Homo sapiens, UniProt P52333); assay: JAK3 Assay (Caliper EZ Reader, fluoresceinated peptide); details: ATP 3.5 μM; JAK3 0.5 nM; 30 minutes at room temperature; read-out: JAK3 inhibition
T1 sequence (P52333 1-1124): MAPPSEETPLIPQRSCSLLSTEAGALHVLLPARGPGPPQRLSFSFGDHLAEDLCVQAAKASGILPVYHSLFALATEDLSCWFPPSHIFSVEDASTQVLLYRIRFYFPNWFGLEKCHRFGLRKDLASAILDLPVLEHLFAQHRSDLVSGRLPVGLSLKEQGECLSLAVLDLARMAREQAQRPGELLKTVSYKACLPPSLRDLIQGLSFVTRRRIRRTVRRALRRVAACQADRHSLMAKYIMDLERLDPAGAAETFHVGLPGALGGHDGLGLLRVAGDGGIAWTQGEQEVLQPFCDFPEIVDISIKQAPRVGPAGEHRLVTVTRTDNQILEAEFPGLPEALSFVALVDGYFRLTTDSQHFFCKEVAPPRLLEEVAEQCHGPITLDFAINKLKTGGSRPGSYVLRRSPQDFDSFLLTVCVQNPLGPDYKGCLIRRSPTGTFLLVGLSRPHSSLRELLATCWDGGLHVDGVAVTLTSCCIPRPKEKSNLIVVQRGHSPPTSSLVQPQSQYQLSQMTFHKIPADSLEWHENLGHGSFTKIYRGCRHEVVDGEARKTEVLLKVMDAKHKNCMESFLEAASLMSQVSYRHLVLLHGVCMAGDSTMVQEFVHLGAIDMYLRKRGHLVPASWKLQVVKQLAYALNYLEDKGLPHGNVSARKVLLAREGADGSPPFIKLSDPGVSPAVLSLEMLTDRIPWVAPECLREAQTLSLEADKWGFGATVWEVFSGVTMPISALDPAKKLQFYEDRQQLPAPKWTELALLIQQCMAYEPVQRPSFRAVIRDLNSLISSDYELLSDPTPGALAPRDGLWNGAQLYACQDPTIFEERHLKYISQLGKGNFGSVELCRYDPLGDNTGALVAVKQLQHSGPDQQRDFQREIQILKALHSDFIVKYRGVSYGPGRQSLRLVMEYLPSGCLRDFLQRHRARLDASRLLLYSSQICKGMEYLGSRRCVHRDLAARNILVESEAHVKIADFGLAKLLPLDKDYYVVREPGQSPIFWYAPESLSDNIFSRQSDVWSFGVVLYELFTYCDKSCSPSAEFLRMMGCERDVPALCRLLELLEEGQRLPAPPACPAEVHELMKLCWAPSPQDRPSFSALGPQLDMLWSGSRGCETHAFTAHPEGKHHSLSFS
Protocol: JAK3 Assay 384-well plates in the left foot butoxy measured progress. The final assay volume was 25 μL, 250 nL 100× compounds, 10 μL enzyme mix and 15 μL substrate mix (fluoresceinated peptide and ATP) in assay buffer (50 mM HEPES (pH 7.5), 10 mM MgCl2, 0.01% TritonX-100, 0.01% Brij35, 0.5 mM EGTA and 2 mM DTT) prepared as test compound. By mixing the JAK3 with substrates and test compounds to start the reaction. The reaction mixture was incubated for 30 minutes at room temperature, then added 30 μL stop buffer for each sample to terminate the reaction with 50 mM EDTA. After termination of the kinase reaction, the proportion of phosphorylated product was determined as a fraction of total peptide substrate using Caliper EZ Reader II. Inhibition data were calculated by comparison with 100% of the reaction mixture without enzyme inhibition and vehicle-only reaction mixture billion % inhibition compared. The final concentration of reagents in the assays is: ATP, 3.5 μM; JAK3 fluorescent peptide (5-FAM-EEPLYWSFPAKKK-CONH2), 3 μM; JAK3, 0.5 nM; and DMSO, 1%. Dose response curve were generated to determine the concentration required for IC50 of JAK3 activity.

[2] = target: JAK1 (Homo sapiens, UniProt P23458); assay: JAK Kinase Assay (JAK1, Caliper EZ Reader, fluoresceinated peptide); details: ATP 76.5 μM; JAK1 10 nM; 120 minutes at room temperature; read-out: JAK1 inhibition
Protocol: JAK Kinase Assay 384-well plates in the left foot butoxy measured progress. The final assay volume was 25 μL, 250 nL 100× compounds, 10 μL enzyme mix and 15 μL substrate mix (fluoresceinated peptide and ATP) in assay buffer (20 mM HEPES (pH 7.5), 10 mM MgCl2, […], 0.5 mM EGTA and 2 mM DTT) prepared as test compound. By mixing the JAK1 with substrates and test compounds to start the reaction. There action mixture was incubated for 120 minutes at room temperature, then added 30 μL stop buffer for each sample to terminate the reaction with 50 mM EDTA. After termination of the kinase reaction, the proportion of phosphorylated product was determined as a fraction of total peptide substrate using Caliper EZ Reader II. Inhibition data were calculated by comparison with 100% of the reaction mixture without enzyme inhibition and vehicle-only reaction mixture billion % inhibition compared. The final concentration of reagents in the assays is: ATP, 76.5 μM; JAK1 fluorescent peptide (5-FAM-EEPLYWSFPAKKK-CONH2), 3 μM; JAK1, 10 nM, and DMSO, 1%. Dose response curve were generated to determine the concentration required for IC50 of JAK activity.

[3] = target: JAK2 (Homo sapiens, UniProt O60674); assay: JAK2 Assay (Caliper EZ Reader, fluoresceinated peptide); details: ATP 11.4 μM; JAK2 0.25 nM; 15 minutes at room temperature; read-out: JAK2 inhibition
Protocol: JAK2 Assay 384-well plates in the left foot butoxy measured progress. The final assay volume was 25 μL, 250 nL 100× compounds, 10 μL enzyme mix and 15 μL substrate mix (fluoresceinated peptide and ATP) in assay buffer (50 mM HEPES (pH 7.5), 10 mM MgCl2, 0.01% TritonX-100, 0.01% Brij35, 0.5 mM EGTA and 2 mM DTT) prepared as test compound By mixing the JAK2 with substrates and test compounds to start the reaction. The reaction mixture was incubated for 15 minutes at room temperature, then added 30 μL stop buffer for each sample to terminate the reaction with 50 mM EDTA. After termination of the kinase reaction, the proportion of phosphorylated product was determined as a fraction of total peptide substrate using Caliper EZ Reader 1 Inhibition data were calculated by comparison with 100% of the reaction mixture without enzyme inhibition and vehicle-only reaction mixture billion % inhibition compared. The final concentration of reagents in the assays is: ATP, 11.4 μM; JAK2 fluorescent peptide (5-FAM-EEPLYWSFPAKKK-CONH2), 3 μM; JAK2, 0.25 nM; and DMSO, 1%. Dose response curve were generated to determine the concentration required for IC50 of JAK2 activity.

Sequence of JAK2 (O60674 whole entry, species assumed): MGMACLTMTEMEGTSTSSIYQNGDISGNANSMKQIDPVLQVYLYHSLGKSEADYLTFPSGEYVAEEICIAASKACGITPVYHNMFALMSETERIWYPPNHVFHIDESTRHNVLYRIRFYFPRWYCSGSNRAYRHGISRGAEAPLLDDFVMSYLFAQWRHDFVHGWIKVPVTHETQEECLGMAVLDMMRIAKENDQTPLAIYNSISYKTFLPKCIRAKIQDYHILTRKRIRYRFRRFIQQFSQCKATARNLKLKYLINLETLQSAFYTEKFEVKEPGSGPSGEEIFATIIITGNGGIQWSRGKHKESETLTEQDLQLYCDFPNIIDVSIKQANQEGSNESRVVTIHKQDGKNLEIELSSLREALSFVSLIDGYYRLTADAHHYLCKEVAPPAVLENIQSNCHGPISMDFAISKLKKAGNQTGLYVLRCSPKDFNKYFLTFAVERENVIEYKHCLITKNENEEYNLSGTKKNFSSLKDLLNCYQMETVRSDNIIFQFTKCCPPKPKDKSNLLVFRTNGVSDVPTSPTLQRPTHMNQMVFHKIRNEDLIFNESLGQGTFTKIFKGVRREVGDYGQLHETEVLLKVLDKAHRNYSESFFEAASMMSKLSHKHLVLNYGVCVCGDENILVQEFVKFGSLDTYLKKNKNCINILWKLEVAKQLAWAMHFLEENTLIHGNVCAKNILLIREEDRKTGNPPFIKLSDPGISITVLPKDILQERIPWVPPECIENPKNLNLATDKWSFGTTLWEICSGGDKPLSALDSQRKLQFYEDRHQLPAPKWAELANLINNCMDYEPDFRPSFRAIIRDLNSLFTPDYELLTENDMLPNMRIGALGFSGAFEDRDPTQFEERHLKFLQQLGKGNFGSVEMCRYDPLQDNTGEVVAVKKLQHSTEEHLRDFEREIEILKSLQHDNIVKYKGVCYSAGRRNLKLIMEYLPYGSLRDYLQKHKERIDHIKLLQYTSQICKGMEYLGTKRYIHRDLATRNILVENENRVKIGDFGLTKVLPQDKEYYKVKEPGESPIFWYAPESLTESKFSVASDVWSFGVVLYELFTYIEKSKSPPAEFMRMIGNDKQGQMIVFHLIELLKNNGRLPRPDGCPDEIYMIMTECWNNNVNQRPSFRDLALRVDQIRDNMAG
Sequence of JAK1 (P23458 whole entry, species assumed): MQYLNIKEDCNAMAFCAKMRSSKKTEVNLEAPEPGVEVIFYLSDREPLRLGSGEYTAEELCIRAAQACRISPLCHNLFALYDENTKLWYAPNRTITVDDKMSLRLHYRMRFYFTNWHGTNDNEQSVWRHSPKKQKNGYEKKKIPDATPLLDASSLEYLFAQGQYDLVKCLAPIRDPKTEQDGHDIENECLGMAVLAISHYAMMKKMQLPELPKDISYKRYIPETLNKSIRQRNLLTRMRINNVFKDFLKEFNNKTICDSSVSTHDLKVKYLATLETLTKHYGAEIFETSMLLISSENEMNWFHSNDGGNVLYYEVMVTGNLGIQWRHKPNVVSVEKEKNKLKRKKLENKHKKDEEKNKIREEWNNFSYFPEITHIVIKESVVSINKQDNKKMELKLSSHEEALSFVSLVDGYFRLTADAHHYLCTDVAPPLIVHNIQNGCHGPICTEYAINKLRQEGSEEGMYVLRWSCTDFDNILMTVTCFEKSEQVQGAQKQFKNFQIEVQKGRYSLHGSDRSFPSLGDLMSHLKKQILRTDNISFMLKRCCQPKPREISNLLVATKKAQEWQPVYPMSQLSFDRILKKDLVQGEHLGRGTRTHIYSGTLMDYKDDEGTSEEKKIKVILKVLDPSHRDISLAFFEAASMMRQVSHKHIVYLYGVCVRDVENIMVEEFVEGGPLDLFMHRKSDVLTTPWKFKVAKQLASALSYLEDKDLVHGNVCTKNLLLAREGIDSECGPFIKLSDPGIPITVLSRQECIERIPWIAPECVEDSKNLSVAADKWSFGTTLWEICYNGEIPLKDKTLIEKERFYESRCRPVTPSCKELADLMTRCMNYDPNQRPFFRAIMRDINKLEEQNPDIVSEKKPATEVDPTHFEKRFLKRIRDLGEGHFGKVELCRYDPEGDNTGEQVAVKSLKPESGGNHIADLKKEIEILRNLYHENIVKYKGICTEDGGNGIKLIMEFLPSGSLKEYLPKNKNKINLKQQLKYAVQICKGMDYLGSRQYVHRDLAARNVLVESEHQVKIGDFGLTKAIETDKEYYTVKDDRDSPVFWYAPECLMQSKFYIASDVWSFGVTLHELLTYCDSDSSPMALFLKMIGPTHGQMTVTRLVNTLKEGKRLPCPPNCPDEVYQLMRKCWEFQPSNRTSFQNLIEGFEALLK

Row | Compound | IC50 [1] [nM] | IC50 [2] [nM] | IC50 [3] [nM]
1 | CN(c1ncnc2[nH]ccc12)C1CC2(C1)CN(C(=O)c1csc3ccccc13)C2 [Compound 22, benzo[b]thiophen-3-yl(6-(methyl(7H-pyrrolo[2,3-d]pyrimidin-4-yl)amino)-2-azaspiro[3.3]heptan-2-yl)methanone] | 1000 to 10000 | 10 to 100 | 1000 to 10000
2 | CN(c1ncnc2[nH]ccc12)C1CC2(C1)CN(C(=O)CCC#N)C2 [Compound 10, 4-(6-(methyl(7H-pyrrolo[2,3-d]pyrimidin-4-yl)amino)-2-azaspiro[3.3]heptan-2-yl)-4-oxobutanenitrile] | 1000 to 10000 | 10 to 100 | 100 to 1000
3 | CN(c1ncnc2[nH]ccc12)C1CC2(C1)CN(C(=O)c1cccc(OC(F)(F)F)c1)C2 [Compound 17, (6-(methyl(7H-pyrrolo[2,3-d]pyrimidin-4-yl)amino)-2-azaspiro[3.3]heptan-2-yl)(3-(trifluoromethoxy)phenyl)methanone] | ≥ 10000 | 100 to 1000 | 1000 to 10000
4 | CN(c1ncnc2[nH]ccc12)C1CCC2(CC1)CCN(C(=O)Nc1cccc(C#N)c1)CC2 [Compound 122, N-(3-cyanophenyl)-9-(methyl(7H-pyrrolo[2,3-d]pyrimidin-4-yl)amino)-3-azaspiro[5.5]undecane-3-carboxamide] |  | ≤ 10 | 
5 | CN(c1ncnc2[nH]ccc12)C1CCC2(CC1)CCN(C(=O)OCC(F)(F)F)CC2 [Compound 108, 2,2,2-trifluoroethyl 9-(methyl(7H-pyrrolo[2,3-d]pyrimidin-4-yl)amino)-3-azaspiro[5.5]undecane-3-carboxylate] |  | 100 to 1000 | 
6 | COc1ccc(NC(=O)N2CCC3(CCC(N(C)c4ncnc5[nH]ccc45)CC3)CC2)nc1 [Compound 130, N-(5-methoxypyridin-2-yl)-9-(methyl(7H-pyrrolo[2,3-d]pyrimidin-4-yl)amino)-3-azaspiro[5.5]undecane-3-carboxamide] |  | 10 to 100 | 
7 | Cc1cc(C(=O)N2CC3(CC(N(C)c4ncnc5[nH]ccc45)C3)C2)c(F)cc1C#N [Compound 54, 5-fluoro-2-methyl-4-(6-(methyl(7H-pyrrolo[2,3-d]pyrimidin-4-yl)amino)-2-azaspiro[3.3]heptane-2-carbonyl)benzonitrile] |  | 10 to 100 | 
8 | Cc1cnc(NC(=O)N2CCC3(CCC(N(C)c4ncnc5[nH]ccc45)CC3)CC2)s1 [Compound 126, 9-(methyl(7H-pyrrolo[2,3-d]pyrimidin-4-yl)amino)-N-(5-methylthiazol-2-yl)-3-azaspiro[5.5]undecane-3-carboxamide] |  | 100 to 1000 | 
9 | CN(c1ncnc2[nH]ccc12)C1CCC2(CC1)CCN(C(=O)Nc1cccc(C#N)n1)CC2 [Compound 123, N-(6-cyanopyridin-2-yl)-9-(methyl(7H-pyrrolo[2,3-d]pyrimidin-4-yl)amino)-3-azaspiro[5.5]undecane-3-carboxamide] |  | ≤ 10 | 
10 | CN(c1ncnc2[nH]ccc12)C1CCC2(CC1)CCN(C(=O)COc1ccc(C#N)c(F)c1)CC2 [Compound 117, 2-fluoro-4-(2-(9-(methyl(7H-pyrrolo[2,3-d]pyrimidin-4-yl)amino)-3-azaspiro[5.5]undecan-3-yl)-2-oxoethoxy)benzonitrile] |  | 10 to 100 | 
11 | CN(c1ncnc2[nH]ccc12)C1CCC2(CC1)CCN(C(=O)Nc1ccc(C#N)cn1)CC2 [Compound 125, N-(5-cyanopyridin-2-yl)-9-(methyl(7H-pyrrolo[2,3-d]pyrimidin-4-yl)amino)-3-azaspiro[5.5]undecane-3-carboxamide] |  | 1000 to 10000 | 
12 | CCN(CC)S(=O)(=O)N1CCC2(CCC(N(C)c3ncnc4[nH]ccc34)CC2)CC1 [Compound 111, N,N-diethyl-9-(methyl(7H-pyrrolo[2,3-d]pyrimidin-4-yl)amino)-3-azaspiro[5.5]undecane-3-sulfonamide] |  | ≥ 10000 | 
13 | CNC(=O)N1CCC2(CCC(N(C)c3ncnc4[nH]ccc34)CC2)CC1 [Compound 110, N-methyl-9-(methyl(7H-pyrrolo[2,3-d]pyrimidin-4-yl)amino)-3-azaspiro[5.5]undecane-3-carboxamide] |  | 10 to 100 | 
14 | CN(c1ncnc2[nH]ccc12)C1CCC2(CC1)CCN(C(=O)Nc1ccc(C#N)cc1)CC2 [Compound 121, N-(4-cyanophenyl)-9-(methyl(7H-pyrrolo[2,3-d]pyrimidin-4-yl)amino)-3-azaspiro[5.5]undecane-3-carboxamide] |  | 10 to 100 | 
15 | CN(c1ncnc2[nH]ccc12)C1CC2(C1)CN(C(=O)c1ccc(F)c(C#N)c1)C2 [Compound 57, 2-Fluoro-5-{6-[methyl-(7H-pyrrolo[2,3-d]pyrimidin-4-yl)-amino]-2-aza-spiro[3.3]heptane-2-carbonyl}-benzonitrile] |  | ≤ 10 | 
16 | COc1nsc(NC(=O)N2CC3(CC(N(C)c4ncnc5[nH]ccc45)C3)C2)n1 [Compound 70, N-(3-methoxy-1,2,4-thiadiazol-5-yl)-6-(methyl(7H-pyrrolo[2,3-d]pyrimidin-4-yl)amino)-2-azaspiro[3.3]heptane-2-carboxamide] |  | ≤ 10 | 
17 | COc1cnc(NC(=O)N2CCC3(CCC(N(C)c4ncnc5[nH]ccc45)CC3)CC2)cn1 [Compound 129, N-(5-methoxypyrazin-2-yl)-9-(methyl(7H-pyrrolo[2,3-d]pyrimidin-4-yl)amino)-3-azaspiro[5.5]undecane-3-carboxamide] |  | 10 to 100 | 
18 | CN(c1ncnc2[nH]ccc12)C1CCC2(CC1)CCN(C(=O)COc1ccccc1)CC2 [Compound 107, 1-(9-(methyl(7H-pyrrolo[2,3-d]pyrimidin-4-yl)amino)-3-azaspiro[5.5]undecan-3-yl)-2-phenoxyethan-1-one] |  | ≤ 10 | 
19 | COc1cccc(NC(=O)N2CCC3(CCC(N(C)c4ncnc5[nH]ccc45)CC3)CC2)c1 [Compound 120, N-(3-methoxyphenyl)-9-(methyl(7H-pyrrolo[2,3-d]pyrimidin-4-yl)amino)-3-azaspiro[5.5]undecane-3-carboxamide] |  | ≤ 10 | 
